Patent US20200253877A1, “GEMCABENE, PHARMACEUTICALLY ACCEPTABLE SALTS THEREOF, COMPOSITIONS THEREOF AND METHODS OF USE THEREFOR” (NEUROBO PHARMACEUTICALS, INC., priority 2018, published 2020)

How the values were obtained:
[1] = test system: patients with hypercholesterolemia on stable statin therapy; experiment: 12-week placebo-controlled study of 600 mg QD in hypercholesterolemia patients on moderate and high-intensity statins: atherogenic and inflammatory biomarkers; format: in vivo, human
Description: (§1) High-risk patients including some, but not all those with heterozygous familial hypercholesterolemia (HeFH) or atherosclerotic cardiovascular disease (ASCVD) on appropriate diet and stable statin therapy for at least 12 weeks and LDL-C ≥100 mg/dL (2.59 mmol/L) and triglycerides <500 mg/dL (5.65 mmol/L) were randomized into a 12-week, placebo-controlled, parallel-group, double-blind study to assess the efficacy of gemcabene calcium salt hydrate Crystal Form 1 (PSD90=52 μm) 600 mg (300-mg film-coated Tablet D×2) QD on LDL-C and other lipoproteins and hsCRP (high-sensitivity C-reactive protein). Safety and tolerability were also evaluated. The patients were stratified by high- or moderate-intensity statin therapy, with or without ezetimibe, with a target of 52 patients (26 patients on 600 mg gemcabene calcium salt hydrate Crystal Form 1 as administered by 2×film-coated Tablet D and 26 patients on placebo (“placebo”)) in each stratum. […] Mean baseline LDL-C for all patients was approximately 134 mg/dL (3.48 mmol/L) with most patients in the high-intensity statin stratum on atorvastatin and most patients in the moderate-intensity stratum on either simvastatin or atorvastatin.
The aim of this study was to characterize gemcabene calcium salt hydrate Crystal Form 1's safety and tolerability and to determine gemcabene calcium salt hydrate Crystal Form 1's additive impact to statins on serum biomarker including atherogenic biomarkers (LDL-C, non-HDL-C, ApoB, ApoE, and triglyceride (TG)) and inflammatory biomarkers (hsCRP, serum amyloid A (SAA)).
Fifty patients (24 patients on 600 mg (Tablet D×2); 26 placebo) on baseline high-intensity (HI) statins received atorvastatin 40 mg or 80 mg QD; or rosuvastatin 20 mg or 40 mg QD. Fifty-five patients (29 patients on 600 mg GEM; 26 placebo) on baseline moderate-intensity (MI) statins received atorvastatin 10 mg or 20 mg QD; rosuvastatin 5 mg or 10 mg QD; or simvastatin 20 or 40 mg QD. Baseline LDL-C was 127 mg/dL and 134 mg/dL in the MI statin and HI statin stratum, respectively.
Within the study population, an analysis was performed in a subpopulation of patients having mixed dyslipidemia (LDL-C ≥100 mg/dL and triglycerides ≥200 and <500 mg/dL). Eighteen patients (10 (film-coated Tablet D×2) patients and 8 placebo patients) having a baseline mean LDL-C level of 142 mg/dL, baseline mean triglyceride level of 247 mg/dL and BMI of 34 kg/m^2 were analyzed (FIG. 48). Although not measured in the subpopulation of this Example, some cardiometabolic patients could have elevated sulphatase-2 (Sulf-2) levels, which are believed to cause reduced Syndecan-1 (also known as “remnant receptor”)-mediated clearance of atherogenic remnant lipoproteins. Without being bound by theory, the data shown in FIG. 48 support the inventors' belief that administration of film-coated Tablet D, which comprises a compound of the invention, rescues remnant receptor activity.

[2] = 12-week placebo-controlled study in hypercholesterolemia patients on statins: safety and tolerability; format: in vivo; conditions: 600 mg QD, 12 weeks
Description: as §1
33 of 54 patients (61.1%) in the film-coated Tablet D group and 24 of 51 patients (47.1%) in the placebo group who reported at least one AE during the study. […]

[3] = Integrated analysis of efficacy from completed clinical studies: LDL-C; format: in vivo, human; conditions: inclusive of all background therapies
From the text: Gemcabene calcium salt hydrate Crystal Form 1 given on top of steady-state statins has shown a statin-intensity dependent effect. […] Statins inhibit cholesterol synthesis and upregulate LDL receptor expression to effect LDL-C reduction.

[4] = Steady-state plasma gemcabene pharmacokinetics (600 mg daily) in healthy female subjects; format: in vivo, human
Description: (§2) An open-label, two-sequence, cross-over study to assess the steady-state effects of gemcabene calcium on the single-dose pharmacokinetics (PK) of oral contraceptive tablets in healthy female subjects was conducted with 300 mg tablets containing gemcabene calcium salt hydrate Crystal Form 1 having PSD90 of 52 μm (film-coated Tablet F).
The population for this study was generally healthy, adult female subjects of childbearing potential (≥18 to ≤35 years of age). This population supports the overall objective of the study to evaluate the effect of 600 mg of gemcabene calcium salt hydrate Crystal Form 1 having PSD90 of 52 μm at steady-state on the PK of a single dose of ON 1/35 (Ortho Novum 1/35; combined ethinyl estradiol/norethindrone oral contraceptive). The primary objective of this study was to assess the effect of daily 600 mg of gemcabene calcium salt hydrate Crystal Form 1 having PSD90 of 52 μm at steady-state on the pharmacokinetics (PK) of ON 1/35. The secondary objectives of this study were to assess the safety and tolerability of daily gemcabene 600 mg in combination with a single-dose ON 1/35 and to assess the steady-state PK of 600 mg of gemcabene calcium salt hydrate Crystal Form 1 having PSD90 of 52 μm (film-coated Tablet F×2). […]

[5] = human, in vivo
Description: as §2
The population for this study was generally healthy, adult female subjects of childbearing potential (≥18 to ≤35 years of age). This population supports the overall objective of the study to evaluate the effect of 600 mg of gemcabene calcium salt hydrate Crystal Form 1 having PSD90 of 52 μm at steady-state on the PK of a single dose of ON 1/35 (Ortho Novum 1/35; combined ethinyl estradiol/norethindrone oral contraceptive). The primary objective of this study was to assess the effect of daily 600 mg of gemcabene calcium salt hydrate Crystal Form 1 having PSD90 of 52 μm at steady-state on the pharmacokinetics (PK) of ON 1/35. The secondary objectives of this study were to assess the safety and tolerability of daily gemcabene 600 mg in combination with a single-dose ON 1/35 and to assess the steady-state PK of 600 mg of gemcabene calcium salt hydrate Crystal Form 1 having PSD90 of 52 μm (film-coated Tablet F×2).
Throughout the study, 2 (12.5%) subjects in Treatment A; 4 (26.7%) subjects during gemcabene alone treatment of Treatment B, and 3 (20%) subjects during gemcabene with ON 1/35 treatment of Treatment B, had treatment-emergent adverse events (TEAEs). […] All TEAEs were considered to be mild or moderate in severity.

[6] = patients with mixed dyslipidemia, 600 mg QD on statins (FIG. 48)

Row | SMILES | atherogenic and inflammatory markers ([1]; hypercholesterolemia patients on MI and HI statins, 600 mg QD, 12 weeks) | reduction in ApoB [1, 6] [%] | reduction in ApoE [1, 6] [%] | reduction in LDL-C [1, 6] [%] | reduction in TG [1, 6] [%] | reduction in non-HDL-C [1, 6] [%] | serious adverse events and deaths [2] | mean LDL-C reduction [3] | mean Cmin [4] [µg/mL] | subjects with a drug-related TEAE (constipation) ([5]; female) [subject] | serious adverse events (SAEs) [5] | tolerability [5]
1 | CC(C)(CCCCOCCCCC(C)(C)C(=O)O)C(=O)O.[Ca] [6-(5-Carboxy-5-methyl-hexyloxy)-2,2-dimethylhexanoic acid calcium] | significant reductions | 26 | 34 | 23 | 33 | 19 | no serious adverse events (AEs) and no deaths | about 21% | – | – | – | –
2 | CC(C)(CCCCOCCCCC(C)(C)C(=O)O)C(=O)O [gemcabene, 6-(5-carboxy-5-methyl-hexyloxy)-2,2-dimethyl-hexanoic acid] | – | – | – | – | – | – | – | – | 102.68 | 1 | no serious adverse events | well tolerated
